Each structure is given as a SMILES string.

The assay has as its system AT11 on 2[G4]-(N3)127/(AT11)34/(Cy5)1 (aptadendrimer) (DNA, G4) TGGTGGTGGTTGTTGTGGTGGTGGTGGT
Description: steady-state and time-resolved fluorescence, fluorescence anisotropy. The settings on record: K+ 65 mM KCl plus potassium phosphate; 20 mM phosphate pH 6.9, room temperature; 0.5 µM C8, aptadendrimer titrated; dendrimer core may contribute. On the technique in general: In fluorescence polarisation assays a small probe gives low polarisation when free and higher when bound to something large.

On to `CN(C)c1ccc2cc3ccc(N(C)C)cc3[n+](CCCCCCCCNC(=O)c3ccc(I)cc3)c2c1`, for which the binding entry is on record as “yes”.
